According to ChEMBL document CHEMBL3856210, “Discovery of in vitro antitubercular agents through in silico ligand-based approaches” (Eur J Med Chem, 2016):
Converted amounts (≈) assume the structure as drawn.

Experiment: Antitubercular activity against Mycobacterium tuberculosis H37Ra ATCC 25177 after 21 days by agar dilution method
Assay type: functional
Conditions: ATCC 25177, 504 h

Row | Compound | MIC [µg/mL]
1 | Cc1cc(/C=N\OCc2cccc(F)c2)c(C)n1-c1ccc(F)cc1 | > 100
2 | Cc1ccc(C2NC(=O)NC(O)(C(F)(F)F)C2C(=O)c2ccc(Cl)cc2)cc1 (stereo unspecified) | 32 (≈ 77.5 µM)
3 | CN(C(=O)c1cccc(Cl)c1)c1nc(-c2ccccc2)cs1 | 64 (≈ 195 µM)
4 | COc1ccc(-n2c(-c3ccc(Br)cc3)cc3c2CC(C)(C)CC3=O)c(OC)c1 | 64 (≈ 141 µM)
5 | CC(C)c1ccc(NC(=O)O[C@H](Cn2ccnc2)c2ccc(F)cc2)cc1 | 16 (≈ 43.5 µM)
6 | Cc1[nH]n(-c2ccc(Br)cc2)c(=O)c1C(=O)c1ccc(Cl)cc1 | 4 (≈ 10.2 µM)
7 | Cc1ccccc1C(=O)c1c(C)nn(-c2ccccc2)c1O | 50 (≈ 171 µM)
8 | Cc1cc(/C=N\OCc2ccccc2)c(C)n1-c1ccccc1 | > 100
9 | O=C(O[C@H](Cn1ccnc1)c1ccc(Cl)cc1Cl)N1CCN(c2ccc(Cl)c(Cl)c2)CC1 | 8 (≈ 15.6 µM)
10 | CC1=NN(c2ccc(Cl)cc2)C(=O)/C1=C\N1CCN(CCO)CC1 | 64 (≈ 183 µM)
11 | COc1ccc(C(CNS(=O)(=O)N2CCCC2)c2c[nH]c3ccccc23)cc1 (stereo unspecified) | 32 (≈ 80.1 µM)
12 | CC1=NN(c2ccccc2)C(=O)/C1=C(/c1ccc(Cl)cc1)N(C)C | 32 (≈ 94.2 µM)
13 | O=C1S/C(=C\c2ccc(-c3cccc(Cl)c3Cl)o2)C(=O)N1c1ccc(Cl)cc1 | 64 (≈ 142 µM)
14 | CCc1c(CN2CCSCC2)cc(-c2ccccc2F)n1-c1ccccc1F | 4 (≈ 10 µM)
15 | Cc1nn(-c2ccccc2)c(O)c1C(=O)c1cccnc1 | > 100
16 | Cc1ccc(-n2nc(C)c(C(=O)c3ccc(Cl)cc3)c2O)cc1 | 16 (≈ 49 µM)
17 | CC1=NN(c2ccc(Cl)cc2)C(=O)/C1=C\N1CCNCC1C(=O)c1ccco1 (stereo unspecified) | 32 (≈ 80.2 µM)
18 | O=C(COc1ccccc1)OC(Cn1ccnc1)c1ccc(Cl)cc1 (racemic) | 64 (≈ 179 µM)
19 | Clc1ccc(C2=CSC3=NN=C(SCc4ccccn4)C23)cc1 (stereo unspecified) | 64 (≈ 179 µM)
20 | CCC/N=C(\c1ccc(Cl)cc1)c1c(C)nn(-c2ccc(Cl)cc2)c1O | > 100
21 | Cc1nn(-c2ccccc2)c(O)c1C(=O)c1cccs1 | 50 (≈ 176 µM)
22 | O=C(O[C@H](Cn1ccnc1)c1ccc([N+](=O)[O-])cc1)N1CCN(c2ccc(Cl)c(Cl)c2)CC1 | 16 (≈ 32.6 µM)

Row | Compound | MIC [µg/mL]
23 | C=CCn1cnc2sc(C)c(-c3ccc(Cl)cc3)c2c1=O | 32 (≈ 101 µM)
24 | CCc1ccc(-c2cc(CN3CCSCC3)c(C)n2-c2ccc(OC)cc2)cc1 | 0.5 (≈ 1.23 µM)
25 | O=C(c1ccc(Cl)cc1)c1c(C(F)(F)F)[nH]n(-c2ccccc2)c1=O | > 64
26 | Clc1cccc(CSc2nnc(-c3ccc(Cl)cc3Cl)o2)c1 | 32 (≈ 86.1 µM)
27 | CCCc1cc(=O)n2nc(C)c(-c3ccc(Cl)cc3)c2[nH]1 | 8 (≈ 26.5 µM)
28 | C=C(C)Cn1c(S)nnc1CCn1c2ccc(Cl)cc2c2cc(Cl)ccc21 | 32 (≈ 76.7 µM)
29 | O=C(O[C@H](Cn1ccnc1)c1ccc(-c2ccccc2)cc1)N1CCN(c2ccc(Cl)c(Cl)c2)CC1 | 16 (≈ 30.7 µM)
30 | Cc1[nH]n(-c2ccccc2)c(=O)c1C(=O)c1cccc(F)c1 | 25 (≈ 84.4 µM)
31 | O=C1NN(c2ccc(Cl)cc2)C(=O)/C1=C/c1ccc(Cl)cc1Cl | 32 (≈ 87 µM)
32 | Cc1nn(C(=O)c2cccc([N+](=O)[O-])c2)c(C)c1Sc1ccc(Cl)cc1 | 32 (≈ 82.5 µM)
33 | O=S(=O)(Nc1nc2ccccc2[nH]1)c1ccc(Cl)cc1 | 32 (≈ 104 µM)
34 | Cc1c(C(=O)c2ccc(Cl)cc2)c(=O)n(-c2ccccc2)n1Cc1ccc(F)cc1 | 32 (≈ 76 µM)
35 | CC(C)c1[nH]n(-c2ccccc2)c(=O)c1C(=O)c1ccc(Cl)cc1 | 64 (≈ 188 µM)
36 | O=C(OC(Cc1ccccc1)c1ccc(Cl)cc1)N1CCN(c2ccc(Cl)c(Cl)c2)CC1 (racemic) | 64 (≈ 131 µM)
37 | COCc1nn2c(=O)cc(CCc3c(C)n[nH]c3C)[nH]c2c1-c1ccc(Cl)cc1 | 16 (≈ 38.8 µM)
38 | O=C(c1ccc(Cl)cc1)c1c(-c2ccccc2)[nH]n(-c2ccc(Cl)cc2)c1=O | 16 (≈ 39.1 µM)
39 | CCN(Cc1cc2cc(C)c(C)cc2[nH]c1=O)c1ccc(OC)cc1C | > 64
40 | Cc1nn(-c2ccc(Cl)cc2)c(O)c1/C(=N/OCc1ccccc1)c1ccc(Cl)cc1 | > 100
41 | CO/N=C(\c1ccc(Cl)cc1)c1c(C)nn(-c2ccccc2)c1O | 25 (≈ 73.1 µM)
42 | CC1=NN(c2ccccc2)C(=O)/C1=C(/c1ccc(Cl)cc1)N1CCN(C)CC1 | 8 (≈ 20.3 µM)
43 | O=C(O[C@H](Cn1ccnc1)c1ccc(F)cc1)N1CCN(C(=O)c2ccco2)CC1 | 64 (≈ 155 µM)
44 | CC1=NN(c2ccc(Cl)cc2)C(=O)/C1=C\N1CCN(c2ccccc2)CC1 | 64 (≈ 168 µM)

Row | Compound | MIC [µg/mL]
45 | COc1ccc(-c2cnn3c(=O)c4c([nH]c23)CCCC4)cc1OC | 32 (≈ 98.4 µM)
46 | Cc1nn(-c2ccccc2)c(O)c1/C(=N/Cc1ccccc1)c1ccc(Cl)cc1 | > 100
47 | O=C(Cc1noc(-c2ccncc2)n1)Nc1cc(Cl)cc(Cl)c1 | 32 (≈ 91.6 µM)
48 | COc1ccc(-n2c(SC)nnc2-c2ccc(Cl)cc2)c(OC)c1 | 32 (≈ 88.4 µM)
49 | CO/N=C(\c1ccc(Cl)cc1)c1c(C)nn(-c2ccc(Cl)cc2)c1O | 25 (≈ 66.4 µM)
50 | CC1=NN(c2ccc(Cl)cc2)C(=O)/C1=C\Nc1ccccc1 | 64 (≈ 205 µM)
51 | CC1=NN(c2ccccc2)C(=O)/C1=C(/c1ccc(Cl)cc1)N1CCSCC1 | 8 (≈ 20.1 µM)
52 | O=C(c1ccc(Cl)cc1)c1c(C(F)(F)F)[nH]n(-c2ccc(Cl)cc2)c1=O | > 64
53 | O=C(OC(Cn1cccc1)c1ccc(Cl)cc1)N1CCN(c2ccc(Cl)c(Cl)c2)CC1 (racemic) | 64 (≈ 134 µM)
54 | Cc1nn(-c2ccccc2)c(O)c1C(=O)c1ccc(Cl)cc1 | 6.25 (≈ 20 µM)
55 | Cc1nn(-c2ccccc2)c(O)c1C(=O)c1ccc([N+](=O)[O-])cc1 | > 100
56 | CC1=NN(c2ccc(Cl)cc2)C(=O)/C1=C\N(C)C | > 64
57 | CNCCC/C(=C1\C(=O)N(c2ccc(Cl)cc2)N=C1C)c1ccc(Cl)cc1 | 64 (≈ 159 µM)
58 | CCCc1cc(=O)n2nc(C)c(-c3ccc(OC)cc3)c2[nH]1 | 32 (≈ 108 µM)
59 | Cc1cc(/C=N\OCc2ccc([N+](=O)[O-])cc2)c(C)n1-c1ccc(F)cc1 | > 100
60 | CN1C(=O)C2C(N=C(Oc3ccc(Cl)cc3)N2Cc2cccc(F)c2)N(C)C1=O (stereo unspecified) | 64 (≈ 154 µM)
61 | Fc1ccc([C@H](c2cn(Cc3ccccc3)nn2)n2ccnc2)cc1 | 64 (≈ 192 µM)
62 | Cc1ncc(-c2cc(=O)n3nc(C)c(-c4ccc(Cl)cc4)c3[nH]2)c(C)n1 | 2 (≈ 5.47 µM)
63 | O=C(O[C@H](Cn1ccnc1)c1cccc2ccccc12)N1CCN(c2ccc(Cl)c(Cl)c2)CC1 | 16 (≈ 32.3 µM)
64 | Cc1ccc(-n2c(C)cc(/C=N\OCc3ccccc3)c2C)cc1 | > 100
65 | CC1=NN(c2ccc(Cl)cc2)C(=O)/C1=C(/c1ccc(Cl)cc1)N1CCSCC1 | 8 (≈ 18.5 µM)
66 | COC(=O)C1=C(C)N(Cc2ccc(C)cc2)C(=O)/C1=C\c1ccc(C)cc1OC | 32 (≈ 81.7 µM)

Row | Compound | MIC [µg/mL]
67 | O=C(O[C@H](Cn1ccnc1)c1ccc(Cl)cc1)N1CCN(C(=O)c2ccco2)CC1 | 64 (≈ 149 µM)
68 | COc1ccc(-n2c(-c3ccc(C)cc3)cc(CN3CCSCC3)c2C)cc1 | 1 (≈ 2.55 µM)
69 | CC1=NN(c2ccc(Cl)cc2)C(=O)/C1=C\N1CCOCC1 | 64 (≈ 209 µM)
70 | CCc1c(CN2CCSCC2)cc(-c2ccc(F)cc2)n1-c1ccccc1F | 2 (≈ 5.02 µM)
71 | COCc1cc(=O)n2nc(C)c(-c3ccccc3OC)c2[nH]1 | 32 (≈ 107 µM)
72 | Cc1nn(-c2ccc(F)cc2)c(OC(=O)c2ccccc2)c1C(=O)c1ccccc1 | 25 (≈ 62.4 µM)
73 | Cc1c(-c2cccc(Cl)c2)nn2c(=O)cc(CCCN3CCOCC3)[nH]c12 | 32 (≈ 82.7 µM)
74 | CCc1c(CN2CCSCC2)cc(-c2ccccc2)n1-c1ccc(F)cc1 | 2 (≈ 5.26 µM)
75 | Cc1nn(-c2ccc(Cl)cc2)c(O)c1/C(=N/C1CC1)c1ccc(Cl)cc1 | > 100
76 | O=C1C/C(=N\c2ccc(Cl)cc2)SC1Cc1ccc(Cl)cc1 (stereo unspecified) | 32 (≈ 91.4 µM)
77 | CC1=NN(c2ccc(Cl)cc2)C(=O)/C1=C(/c1ccc(Cl)cc1)N1CCCCC1 | > 64
78 | C/C(=N\OC(=O)COc1ccc(Cl)cc1Cl)c1ccc(Br)cc1 | 32 (≈ 76.7 µM)
79 | CSc1ccc(-c2cc(CN3CCSCC3)c(C)n2-c2ccc(F)cc2)cc1 | < 0.125
80 | CCc1c(CN2CCN(C)CC2)cc(-c2ccc(Cl)cc2)n1-c1ccc(Cl)cc1 | 2 (≈ 4.67 µM)
81 | CCOc1ccc(NC(=O)C(Cc2ccccc2)N2C(=O)c3ccccc3C2=O)cc1 (stereo unspecified) | 32 (≈ 77.2 µM)
82 | CC1=NN(c2ccc(Cl)cc2)C(=O)/C1=C(/c1ccc(Cl)cc1)N1CCN(C)CC1 | 4 (≈ 9.32 µM)
83 | Cc1nn(C(C)CNC(=O)C2(c3ccc(Cl)cc3)CCOCC2)c(C)c1C (stereo unspecified) | 64 (≈ 164 µM)
84 | O=C(O[C@H](Cn1ccnc1)c1ccc(F)cc1)N1CCN(c2ccc(Cl)cc2)CC1 | 16 (≈ 37.3 µM)
85 | Cc1c(C(=O)c2ccc(Cl)cc2)c(=O)n(-c2ccc(Cl)cc2)n1Cc1ccc(F)cc1 | 32 (≈ 70.3 µM)
86 | COc1ccc(CO/N=C\c2cc(C)n(-c3ccc(F)cc3)c2C)cc1 | > 100
87 | Cc1c(C(=O)c2ccc(Cl)cc2)c(=O)n(-c2ccc(Cl)cc2)n1Cc1ccc([N+](=O)[O-])cc1 | 32 (≈ 66.3 µM)
88 | Cc1nn(-c2ccc(Cl)cc2)c(O)c1C(=O)c1ccccc1 | 25 (≈ 79.9 µM)

Row | Compound | MIC [µg/mL]
89 | O=C(O[C@H](Cn1ccnc1)c1ccc(F)cc1)N1CCN(c2ccc([N+](=O)[O-])cc2)CC1 | 32 (≈ 72.8 µM)
90 | COCc1cc(=O)n2nc(C)c(-c3ccc(Cl)cc3)c2[nH]1 | 16 (≈ 52.7 µM)
91 | CC1=NN(c2ccc(Cl)cc2)C(=O)/C1=C(/c1ccc(Cl)cc1)N1CCOCC1 | 4 (≈ 9.61 µM)
92 | O=C(O[C@H](Cn1ccnc1)c1ccc(Cl)cc1)c1cccc(C(F)(F)F)c1 | 16 (≈ 40.5 µM)
93 | CC1=NN(c2ccc(Cl)cc2)C(=O)/C1=C(/c1ccc(Cl)cc1)N(C)C | 16 (≈ 42.7 µM)
94 | Cc1cc(/C=N\OCc2ccccc2)c(C)n1-c1ccc(F)cc1 | 25 (≈ 77.5 µM)
95 | C=CCN1CC(c2nc3ccccc3n2Cc2cccc(Cl)c2)CC1=O (stereo unspecified) | 32 (≈ 87.5 µM)
96 | O=C(OC(Cn1ccnc1)c1ccc(Cl)cc1)N1CCN(c2ccc(Cl)c(Cl)c2)CC1 (racemic) | 4 (≈ 8.34 µM)
97 | O=C(CSc1nc2cc(Cl)ccc2s1)c1ccc(Cl)cc1 | 32 (≈ 90.3 µM)
98 | O=C(O[C@H](Cn1ccnc1)c1ccccc1)N1CCN(c2ccc(Cl)c(Cl)c2)CC1 | 16 (≈ 35.9 µM)
99 | Cc1nn(-c2ccccc2)c(O)c1/C(=N/OCc1ccccc1)c1ccc(Cl)cc1 | > 100
100 | CCc1c(CN2CCSCC2)cc(-c2ccccc2)n1-c1ccccc1 | 2 (≈ 5.52 µM)
101 | O=C(O[C@H](Cn1ccnc1)c1ccc(F)cc1)N1CCN(c2ccc(Cl)c(Cl)c2)CC1 | 16 (≈ 34.5 µM)
102 | CC1=NN(c2ccc(Cl)cc2)C(=O)/C1=C(/c1ccc(Cl)cc1)N1CCC(C)CC1 | 64 (≈ 149 µM)
103 | CC(=O)N1CCN(/C=C2\C(=O)N(c3ccc(Cl)cc3)N=C2C)CC1 | 64 (≈ 185 µM)
104 | Cc1c(C(=O)c2ccc(Cl)cc2)c(=O)n(-c2ccccc2)n1Cc1ccc([N+](=O)[O-])cc1 | > 32
105 | Cc1[nH]n(-c2ccc(F)cc2)c(=O)c1C(=O)c1ccc(Cl)cc1 | 12.5 (≈ 37.8 µM)
106 | O=C(OC(Cn1ccnc1)c1ccc(Cl)cc1)N1CCN(c2ccc([N+](=O)[O-])cc2)CC1 (racemic) | 16 (≈ 35.1 µM)
